We go through one compound from BindingDB's records for doi:10.1016/j.ejmech.2011.02.067 (University of Lisbon, 2011).

For orientation: IC50 means the midpoint of a concentration-inhibition curve.

This assay in a line: Inhibition of human recombinant caspase-3 expressed in Saccharomyces cerevisiae CG379 assessed as growth stimulation after 2 days.

Each structure is given as a SMILES string.

For `CC(C)[C@H](NC(=O)OCc1ccccc1)C(=O)N[C@H](C=CS(C)(=O)=O)CC(=O)O` [(S)-3-((S)-2-(benzyloxycarbonylamino)-3-methylbutanamido)-5-(methylsulfonyl)pent-4-enoic acid], the IC50 was found to be 35.3 µM.
